Results reported in patent US11518763B2 (SCOHIA PHARMA, INC., priority 2018, dated 2022).
Read-outs that look alike come from different tables or passages of the source.

Key:
[1] = amide bond, HATU, DMF
[2] = target: T1, binding between NRF2 and KEAP1 (biotinylated human KEAP1 protein (Kelch domain), TAMRA-labeled NRF2 peptide) (Homo sapiens, UniProt Q14145); assay: Measurement of activity of inhibiting NRF2 binding (NRF2-KEAP1 TR-FRET); conditions: inhibition rate relative to control at 100 nM test compound; TR-FRET; 60 min at room temperature; read-out: NRF2 binding inhibitory activity (at 100 nM)
T1 construct: biotinylated human KEAP1 protein (Kelch domain); biotin (biotinylated)
T1 sequence (Q14145 321-609 limits assumed): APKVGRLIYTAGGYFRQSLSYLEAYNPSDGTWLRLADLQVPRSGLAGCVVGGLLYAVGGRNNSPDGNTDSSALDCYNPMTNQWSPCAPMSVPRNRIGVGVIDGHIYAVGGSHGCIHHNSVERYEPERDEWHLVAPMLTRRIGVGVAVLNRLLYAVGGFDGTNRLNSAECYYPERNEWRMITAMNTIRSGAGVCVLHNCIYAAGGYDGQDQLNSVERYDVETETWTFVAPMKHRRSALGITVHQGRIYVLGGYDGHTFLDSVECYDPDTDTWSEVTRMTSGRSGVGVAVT

CCOC(=O)CC1c2ccc3c(c2)CN(CC3)C(=O)c2ccc(cc2)CCCCCn2nnc3c(C)c1ccc32 (stereo not shown) [Example 37, Ethyl [32-methyl-20-oxo-8,9,10,21-tetraazahexacyclo[19.5.3.2^16,19.1^3,7.0^6,10.0^24,28]dotriaconta-1(26),3(32),4,6,8,16,18,24,27,30-decaen-2-yl]acetate]
ring closure, yield of all isomers ([1]; from CCOC(=O)CC(c1ccc2c(c1)CN(C(=O)OC(C)(C)C)CC2)c1ccc2c(nnn2CCCCCc2ccc(C(=O)OC(C)(C)C)cc2)c1C, 51.2 mM, 25.0 °C, 4.0 h, 2 steps): 52.4% | inhibition at 0.1 µM [2]: 29%

COC(=O)C(C)(C)C1c2ccc3c(c2)CN(CC3)C(=O)c2ccc(cc2)CCCCCn2nnc3c(C)c1ccc32 (stereo not shown)
ring closure, yield of all isomers ([1]; from COC(=O)C(C)(C)C(c1ccc2c(c1)CNCC2)c1ccc2c(nnn2CCCCCc2ccc(C(=O)O)cc2)c1C, 17.6 mM, 30.0 °C, 19.0 h): 12.4%

CCOC(=O)CC1c2ccc3c(c2)CN(CC3)C(=O)c2ccc(cc2)COCCCn2nnc3c(C)c1ccc32 (stereo not shown)
ring closure, yield of all isomers ([1]; from CCOC(=O)CC(c1ccc2c(c1)CN(C(=O)OC(C)(C)C)CC2)c1ccc2c(nnn2CCCOCc2ccc(C(=O)OC(C)(C)C)cc2)c1C, 23.0 mM, 25.0 °C, 3.0 h, 2 steps): 67.7%
